Patent US12065426B2, “Crystalline form of nilotinib hydrochloride, process for its preparation and pharmaceutical composition containing the same” (Laurus Labs Limited, priority 2018, dated 2024)
Read-outs that look alike come from different tables or passages of the source.

What was measured:
[1] = Thermogravimetric analysis (TGA) / loss on drying; assay type: physicochemical; settings: for Thermogravimetric (weight loss %): 10° C./minute, RT to 80° C.
Procedure: Thermogravimetry analysis (TGA) data in the present invention was acquired using TA instruments TGA Q500 thermogravimetric analyser with universal Analysis 2000 software using the following conditions; Heating rate: 10° C./min; Temperature range: 28±2° C.-250° C.; Nitrogen flow: 60 mL/minute.

[2] = Saturation solubility studies in various mediums; settings: for solubility: 25 °C, thermodynamic from solid
Procedure: Saturation solubility studies were conducted in various mediums for nilotinib hydrochloride Form L of the present invention and nilotinib hydrochloride monohydrate Form B (U.S. Pat. No. 8,415,363).

[3] = from table 22 of U.S. Pat. No. 8,415,363, cited from earlier work
[4] = Chemical and polymorphic stability study at different storage conditions (HPLC, XRD); assay type: physicochemical; set-up: key to 5-Methyl isomer (Imp-4) / 4-Ethyl analogue (Imp-5) / Any unspecified impurity / Total Impurities / Methyl ester impurity (Imp-2) / Acid impurity (Imp-1): ND: Not detected; BDRL: Below disregard limit
Text: Nilotinib hydrochloride Form L is packed in a transparent Low density polyethylene (LDPE) bag with a strip seal along with nitrogen filling, which is again kept in a second transparent low density polyethylene bag with strip seal. The LDPE bag is kept in to a triple laminated sunlight barrier with heat seal followed by in a high density polyethylene container and well closed.
Alternatively, Nilotinib hydrochloride Form L is packed in a HM LDPE bag in nitrogen atmosphere, fill the bag with nitrogen and seal it with vacuum sealer. Place this bag in another HM LDPE bag, fill with nitrogen, keep one silica gel packet between two bags and seal the bag with vacuum sealer. Place this in a triple laminated sunlight barrier bag, seal the bag with vacuum sealer; and finally kept it in a HDPE container.
The Nilotinib hydrochloride Form L was analysed using High Performance Liquid Chromatography (“HPLC”) with the conditions as tabulated below: […]

[5] = Dynamic vapour sorption (DVS); assay type: physicochemical
Procedure: Dynamic vapour sorption (DVS) data in the present invention was acquired using TA instruments TA Q5000SA Dynamic vapour sorption analyser with Universal Analysis 2000 software under following parameters; Sample was initially equilibrated at 0% RT for 120 mins; humidity range: 10 to 90%; humidity step size: 10%; Equilibration condition: change in mass less than 0.01% within 5 mins.

[6] = Variable temperature powder X-ray diffraction (VT-PXRD); assay type: physicochemical; settings: 25-300° C., heating rate 10° C./mins

Cc1cn(-c2cc(NC(=O)c3ccc(C)c(Nc4nccc(-c5cccnc5)n4)c3)cc(C(F)(F)F)c2)cn1.Cl.O [Form B, reference compound]
Thermogravimetric (weight loss %) [1]: 0.91 (RT to 80° C.) %
Saturation solubility ([2]; 0.01N HCl, approximately at 25° C.): 80 µg/mL
Saturation solubility ([2]; 0.1N HCl, approximately at 25° C.): 940 µg/mL
Saturation solubility ([2]; Ethanol, approximately at 25° C.): 3690 µg/mL
Saturation solubility ([2]; Isopropanol, approximately at 25° C.): 1930 µg/mL
Saturation solubility ([2]; Phosphate buffer, pH 6.8, approximately at 25° C.): Below detection
Saturation solubility ([2]; Water, approximately at 25° C.): 170 µg/mL
Loss on drying ([3]; 30° C.-100° C.): 1.00%
Loss on drying ([3]; 100° C.-220° C.): 3.02%

Cc1cn(-c2cc(NC(=O)c3ccc(C)c(Nc4nccc(-c5cccnc5)n4)c3)cc(C(F)(F)F)c2)cn1.Cl [Form L, 4-methyl-N-[3-(4-methyl-1H-imidazol-1-yl)-5-(trifluoromethyl)phenyl]-3-[[4-(3-pyridinyl)-2-pyrimidinyl]amino]-benzamide hydrochloride]
4-Ethyl analogue (Imp-5) ([4]; 25 ± 2° C./60 ± 5% RH, 2 month): BDRL
5-Methyl isomer (Imp-4) ([4]; 25 ± 2° C./60 ± 5% RH, 2 month): BDRL
Any unspecified impurity ([4]; 25 ± 2° C./60 ± 5% RH, 2 month): BDRL
Description ([4]; 25 ± 2° C./60 ± 5% RH, 2 month): Slightly yellow
Solid form by XRD ([4]; 25 ± 2° C./60 ± 5% RH, 2 month): Complies
Total Impurities ([4]; 25 ± 2° C./60 ± 5% RH, 2 month): BDRL
4-Ethyl analogue (Imp-5) ([4]; 25 ± 2° C./60 ± 5% RH, Initial): BDRL
Any unspecified impurity ([4]; 25 ± 2° C./60 ± 5% RH, Initial): BDRL
Description ([4]; 25 ± 2° C./60 ± 5% RH, Initial): Slightly yellow
Solid form by XRD ([4]; 25 ± 2° C./60 ± 5% RH, Initial): Complies
Total Impurities ([4]; 25 ± 2° C./60 ± 5% RH, Initial): BDRL
4-Ethyl analogue (Imp-5) ([4]; 40 ± 2° C./75 ± 5% RH, 1 month): BDRL
5-Methyl isomer (Imp-4) ([4]; 40 ± 2° C./75 ± 5% RH, 1 month): BDRL
Acid impurity (Imp-1) ([4]; 40 ± 2° C./75 ± 5% RH, 1 month): BDRL
Any unspecified impurity ([4]; 40 ± 2° C./75 ± 5% RH, 1 month): BDRL
Description ([4]; 40 ± 2° C./75 ± 5% RH, 1 month): Slightly yellow
Methyl ester impurity (Imp-2) ([4]; 40 ± 2° C./75 ± 5% RH, 1 month): BDRL
Solid form by XRD ([4]; 40 ± 2° C./75 ± 5% RH, 1 month): Complies
Total Impurities ([4]; 40 ± 2° C./75 ± 5% RH, 1 month): BDRL
4-Ethyl analogue (Imp-5) ([4]; 40 ± 2° C./75 ± 5% RH, 2 month): BDRL
5-Methyl isomer (Imp-4) ([4]; 40 ± 2° C./75 ± 5% RH, 2 month): BDRL
Any unspecified impurity ([4]; 40 ± 2° C./75 ± 5% RH, 2 month): BDRL
Description ([4]; 40 ± 2° C./75 ± 5% RH, 2 month): Slightly yellow
Solid form by XRD ([4]; 40 ± 2° C./75 ± 5% RH, 2 month): Complies
Total Impurities ([4]; 40 ± 2° C./75 ± 5% RH, 2 month): BDRL
4-Ethyl analogue (Imp-5) ([4]; 40 ± 2° C./75 ± 5% RH, Initial): BDRL
Any unspecified impurity ([4]; 40 ± 2° C./75 ± 5% RH, Initial): BDRL
Description ([4]; 40 ± 2° C./75 ± 5% RH, Initial): Slightly yellow
Solid form by XRD ([4]; 40 ± 2° C./75 ± 5% RH, Initial): Complies
Total Impurities ([4]; 40 ± 2° C./75 ± 5% RH, Initial): BDRL
Polymorphic and chemical identity on storage ([4]; different storage conditions, at least up to two months): retained the same polymorphic and chemical identity
Thermogravimetric (weight loss %) [1]: 1.6 (RT to 80°) %
Loss on drying ([1]; 30° C.-100° C.): 2.3%
Loss on drying ([1]; 100° C.-220° C.): 7.3%
solubility ([2]; 0.01N HCl, simulated gastric fluid): 170 µg/mL
solubility ([2]; 0.1N HCl, simulated gastric fluid): 1860 µg/mL
solubility ([2]; ethanol, organic solvent or mixture): 16300 µg/mL
solubility ([2]; isopropanol, organic solvent or mixture): 2740 µg/mL
solubility ([2]; phosphate buffer, pH 6.8, aqueous buffer): 20 µg/mL
Solubility compared to Form B ([2]; various mediums): better solubility
solubility ([2]; water): 160 µg/mL
% Weight change ([5]; Adsorption, 10 % RH): 0.5405%
% Weight change ([5]; Adsorption, 20 % RH): 0.7918%
% Weight change ([5]; Adsorption, 30 % RH): 0.9954%
% Weight change ([5]; Adsorption, 40 % RH): 1.170%
% Weight change ([5]; Adsorption, 50 % RH): 1.350%
% Weight change ([5]; Adsorption, 60 % RH): 1.544%
% Weight change ([5]; Adsorption, 70 % RH): 1.904%
% Weight change ([5]; Adsorption, 80 % RH): 2.661%
% Weight change ([5]; Adsorption, 90 % RH): 5.414%
% Weight change ([5]; Desorption, 10 % RH): 1.303%
% Weight change ([5]; Desorption, 20 % RH): 1.751%
% Weight change ([5]; Desorption, 30 % RH): 2.098%
% Weight change ([5]; Desorption, 40 % RH): 2.855%
% Weight change ([5]; Desorption, 50 % RH): 4.190%
% Weight change ([5]; Desorption, 60 % RH): 4.453%
% Weight change ([5]; Desorption, 70 % RH): 4.875%
% Weight change ([5]; Desorption, 80 % RH): 5.134%
% Weight change ([5]; Desorption, 90 % RH): 5.414%
Water pick up ([5]; at 80% RH at RT): about 2.7%
Maximum absorption of water ([5]; at 90% RH): about 5.4%
Difference in water content between absorption and desorption ([5]; between 50% and 60% RH at room temperature): about 3%
Hygroscopicity ([5]; from water pick up at 80% RH at RT): moderately hygroscopic
Temperature up to which characteristic PXRD is retained [6]: about 140 °C
